# Measurements published in ChEMBL document CHEMBL5247633, “Discovery of novel analogs of KHS101 as transforming acidic coiled coil containing protein 3 (TACC3) inhibitors for the treatment of glioblastoma” (Eur J Med Chem, 2022).
# Activity calls are given as the source filed them. The rule behind the calls is not given here.
# Key:
# [1] = Cytotoxicity against human U251 cells assessed as inhibition of cell growth measured after 72 hrs by MTT assay; type: toxicity, cell-based, U-251
# [2] = Antiproliferative activity against human U87 cells assessed as inhibition of cell growth incubated for 72 hrs by MTT assay; type: functional, cell-based, U-87MG ATCC; settings: U-87 MG
# MDA-MB-231 = experiment: Antiproliferative activity against human MDA-MB-231 cells assessed as cell growth inhibition measured after 72 hrs by MTT assay; type: functional, cell-based; settings: MDA-MB-231, 72 h
# [3] = Antiproliferative activity against human HLF1 cells assessed as cell growth inhibition measured after 72 hrs by MTT assay; type: functional, cell-based; settings: HLF1, 72 h
# SK-OV-3 = experiment: Antiproliferative activity against human SK-OV-3 cells assessed as cell growth inhibition measured after 72 hrs by MTT assay; type: functional, cell-based; settings: SK-OV-3, 72 h
# JIMT-1 = experiment: Antiproliferative activity against human JIMT-1 cells assessed as cell growth inhibition measured after 72 hrs by MTT assay; type: functional, cell-based; settings: JIMT-1, 72 h
# [4] = Inhibition of cell invasion in human U87 cells assessed as reduction in number of cells invaded at 4 uM incubated for 24 hrs by matrigel-coated transwell assay (reference value: 154.3%); type: functional, U-87MG ATCC
# [5] = Induction of mitochondrial membrane potential loss in human U87 cells assessed as increase in green fluorescence intensity at 0 to 4 uM incubated for 36 hrs by JC-1 staining based flow cytometry relative to control (reference value: 9.34 %); type: functional, U-87MG ATCC; settings: dose 0-4 µM
# U-87MG ATCC [6] = experiment: Induction of ROS generation in human U87 cells at incubated for 36 hrs by DCF-DA based flow cytometry analysis; type: functional, cell-based; settings: dose 1-4 µM
# [7] = Inhibition of cell invasion in human U87 cells assessed as reduction in number of cells invaded at 2 uM incubated for 24 hrs by matrigel-coated transwell assay (reference value: 154.3%); type: functional, U-87MG ATCC
# [8] = Induction of cell cycle arrest in shRNA induced in human U87 cells assessed as accumulation at G2/M phase at 1 to 4 uM by propidium iodide staining based flow cytometric analysis relative to control (reference value: 14.95 %); type: functional, U-87MG ATCC; settings: dose 1-4 µM
# [9] = Induction of cell cycle arrest in human U87 cells assessed as increase in accumulation at G2/M phase at 4 uM after 36 hrs by propidium iodide staining based flow cytometric analysis relative to control (reference value: 15.3 %); type: functional, U-87MG ATCC
# [10] = Induction of apoptosis in human U87 cells assessed as late apoptosis at 4 uM incubated for 36 hrs by AnnexinV/propidium iodide staining based flow cytometry method relative to control (reference value: 0.52 %); type: functional, U-87MG ATCC
# [11] = Inhibition of cell invasion in human U87 cells assessed as reduction in number of cells invaded at 1 uM incubated for 24 hrs by matrigel-coated transwell assay (reference value: 154.3%); type: functional, U-87MG ATCC
# [12] = target: Transforming acidic coiled-coil-containing protein 3 (Homo sapiens) (UniProt Q9Y6A5); experiment: Inhibition of TACC3 in human U87 cells assessed as stabilization of protein by measuring shift in thermal melting curve at 10 uM in presence of pronase incubated for 6 hrs by cellular thermal shift assay; type: cell-based
# U-87MG ATCC [13] = experiment: Antiproliferative activity against shRNA mediated TACC3 knockdown human U87 cells assessed as reduction in cell viability; type: functional, cell-based
# [14] = Cytotoxicity against human U87 cells assessed as reduction in cell viability measured after 24 hrs by MTT assay; type: toxicity, cell-based, U-87MG ATCC
# [15] = Induction of apoptosis in human U87 cells assessed as early apoptosis at 4 uM incubated for 36 hrs by AnnexinV/propidium iodide staining based flow cytometry method relative to control (reference value: 4.49 %); type: functional, U-87MG ATCC
# [16] = Induction of ROS generation in human U87 cells at 4 uM incubated for 36 hrs by DCF-DA based flow cytometry analysis relative to control (Rvb= 4.01 %); type: functional, U-87MG ATCC
# [17] = Stability in human plasma assessed as half life; type: ADME, cell-free
# U-87MG ATCC [18] = experiment: Induction of apoptosis in human U87 cells by AnnexinV/PI staining assay; type: functional, cell-based; settings: dose 1-4 µM
# [19] = Stability in mouse plasma assessed as half life; type: ADME, cell-free
# U-87MG ATCC [20] = experiment: Antitumor activity against human U87 cells xenografted in BALB/c mouse model assessed as increase in apoptotic cells at 20 mg/kg, iv by TUNEL assay; type: functional, organism-based
# [21] = target: Transforming acidic coiled-coil-containing protein 3 (Homo sapiens) (UniProt Q9Y6A5); experiment: Inhibition of TACC3 in human U87 cells assessed as stabilization of protein by measuring shift in thermal melting curve at 10 uM incubated for 6 hrs by cellular thermal shift assay; type: cell-based
# [22] = Toxicity in BALB/c mouse transplanted with human U87 cells assessed as effect in body weight at 20 mg/kg, iv; type: organism-based, U-87MG ATCC; settings: in vivo
# U-87MG ATCC [23] = experiment: Induction of apoptosis in human U87 cells assessed as increase in number of apoptotic cells by Hoechst 33258 staining method; type: functional, cell-based
# U-87MG ATCC [24] = experiment: Antitumor activity against human U87 cells xenografted in BALB/c mouse model assessed as tumor growth regression at 20 mg/kg, iv measured on day 20; type: functional, organism-based
# U-87MG ATCC [25] = experiment: Inhibition of cell migration in human U87 cells assessed as reduction in cell migration incubated for 24 hrs by wound healing assay; type: functional, cell-based
# U-87MG ATCC [26] = experiment: Antitumor activity against human U87 cells xenografted in BALB/c mouse model assessed as decrease in Ki67 positive cells at 20 mg/kg, iv; type: functional, organism-based
# [27] = Induction of cell cycle arrest in human U87 cells assessed as decrease in accumulation at G1 phase at 4 uM after 36 hrs by propidium iodide staining based flow cytometric analysis relative to control (reference value: 51.7 %); type: functional, U-87MG ATCC; set-up: scale not given: the % may be the effect or the level left
# U-87MG ATCC [28] = experiment: Induction of cell cycle arrest in human U87 cells assessed as increase in accumulation at G2/M phase at 2 uM after 24 hrs by propidium iodide staining based flow cytometric analysis; type: functional
# [29] = Antitumor activity against human U87 cells xenografted in BALB/c mouse model assessed as reduction in tumor weight at 20 mg/kg, iv measured on day 20; type: functional, U-87MG ATCC; set-up: scale not given: the % may be the effect or the level left
smiles,measurement,setting,value
CC(C)CNc1ccnc(NCc2csc(-c3ccccc3)c2)n1,IC50 at 72 h,[1],25.8 µM
same,IC50,[2],30.7 µM
same,IC50,MDA-MB-231,27.4 µM
same,IC50,[3],61.2 µM
same,IC50,SK-OV-3,26.2 µM
same,IC50,JIMT-1,42.2 µM
CC(C)CNc1ccnc(NCc2csc(-c3ccc(C(F)(F)F)cc3)n2)n1,IC50 at 72 h,[1],29.8 µM
same,IC50,[2],20.1 µM
same,IC50,MDA-MB-231,33 µM
same,IC50,[3],65.3 µM
same,IC50,SK-OV-3,39 µM
same,IC50,JIMT-1,38 µM
CC(C)CNc1cccc(NCc2csc(-c3ccccc3)n2)c1,IC50 at 72 h,[1],> 100 µM
same,IC50,[2],> 100 µM
CC(C)CNc1ccnc(NCc2csc(-c3ccccc3)n2)n1,IC50 at 72 h,[1],49.1 µM
same,IC50,[2],37.9 µM
same,IC50,MDA-MB-231,31.1 µM
same,IC50,[3],89.4 µM
same,IC50,SK-OV-3,21.4 µM
same,IC50,JIMT-1,33 µM
CCCCN(CCCC)c1ccnc(NCc2csc(-c3ccccc3)n2)n1,IC50 at 72 h,[1],14.2 µM
same,IC50,[2],14.8 µM
same,IC50,MDA-MB-231,21.7 µM
same,IC50,[3],35.4 µM
same,IC50,SK-OV-3,21.3 µM
same,IC50,JIMT-1,13.2 µM
c1ccc(-c2nc(CNc3nccc(N4CCC4)n3)cs2)cc1,IC50 at 72 h,[1],29.2 µM
same,IC50,[2],21.5 µM
same,IC50,MDA-MB-231,27.7 µM
same,IC50,[3],91.1 µM
same,IC50,SK-OV-3,33.3 µM
same,IC50,JIMT-1,25.7 µM
CC(C)CNc1ccnc(NCc2csc(-c3ccc(Cl)cc3)n2)n1,IC50 at 72 h,[1],18.5 µM
same,IC50,[2],16.6 µM
same,IC50,MDA-MB-231,18.3 µM
same,IC50,[3],56.3 µM
same,IC50,SK-OV-3,34.1 µM
same,IC50,JIMT-1,26.9 µM
c1ccc(-c2nc(CNc3nccc(NC4CC4)n3)cs2)cc1,IC50 at 72 h,[1],59.5 µM
same,IC50,[2],72.3 µM
same,IC50,MDA-MB-231,> 100 µM
same,IC50,[3],> 100 µM
same,IC50,SK-OV-3,52.5 µM
same,IC50,JIMT-1,68.8 µM
CCCN(CCC)c1ccnc(NCc2csc(-c3ccccc3)n2)n1,IC50 at 72 h,[1],16.2 µM
same,IC50,[2],16.4 µM
same,IC50,MDA-MB-231,23.2 µM
same,IC50,[3],46.9 µM
same,IC50,SK-OV-3,22.2 µM
same,IC50,JIMT-1,16.9 µM
c1ccc(-c2nc(CNc3nccc(N4CCCC4)n3)cs2)cc1,IC50 at 72 h,[1],17.4 µM
same,IC50,[2],26.2 µM
same,IC50,MDA-MB-231,18.3 µM
same,IC50,[3],61.8 µM
same,IC50,SK-OV-3,20.2 µM
same,IC50,JIMT-1,29.6 µM
c1ccc(-c2nc(CNc3ncccn3)cs2)cc1,IC50 at 72 h,[1],> 100 µM
same,IC50,[2],> 100 µM
c1ccc(-c2nc(CNc3nccc(N4CCCCC4)n3)cs2)cc1,IC50 at 72 h,[1],12.3 µM
same,IC50,[2],8.39 µM
same,IC50,MDA-MB-231,14.6 µM
same,IC50,[3],48.3 µM
same,IC50,SK-OV-3,21.4 µM
same,IC50,JIMT-1,21.9 µM
COc1cccc2c1C(=O)c1c(O)c3c(c(O)c1C2=O)C[C@@](O)(C(=O)CO)C[C@@H]3O[C@H]1C[C@H](N)[C@H](O)[C@H](C)O1 [DOXORUBICIN],IC50 at 72 h,[1],0.45 µM
same,IC50,[2],0.25 µM
same,IC50,MDA-MB-231,0.32 µM
same,IC50,[3],0.23 µM
same,IC50,SK-OV-3,0.19 µM
same,IC50,JIMT-1,0.37 µM
CC(C)CNc1ccnc(NC(=O)c2csc(-c3ccccc3)n2)n1,IC50 at 72 h,[1],92.1 µM
same,IC50,[2],59.1 µM
same,IC50,MDA-MB-231,> 100 µM
same,IC50,SK-OV-3,83.5 µM
same,IC50,JIMT-1,> 100 µM
OC1CC2CC1CN2c1ccnc(NCc2csc(-c3ccccc3)n2)n1 (stereo not drawn),Activity,[4],42.3
same,Activity,[5],48.58%
same,Activity,U-87MG ATCC [6],Dose-Dependent Effect
same,Activity,[7],73
same,IC50 at 72 h,[1],5.61 µM
same,IC50,[2],3.29 µM
same,Activity,[8],21.31%
same,Activity,[9],41.2%
same,Activity,[10],26.72%
same,Activity,[11],119.7
same,inhibition,[12],Active
same,Activity,U-87MG ATCC [13],Active
same,IC50 at 24 h,[14],27.5 µM
same,Activity,[15],21.42%
same,Activity,[16],54.28%
same,IC50,MDA-MB-231,6.46 µM
same,half-life,[17],4.2 h
same,Activity,U-87MG ATCC [18],Dose-Dependent Effect
same,half-life,[19],2.1 h
same,Activity,U-87MG ATCC [20],Active
same,inhibition,[21],Active
same,IC50,[3],23.1 µM
same,Activity,[22],Non-Toxic
same,Activity,U-87MG ATCC [23],Active
same,Activity,U-87MG ATCC [24],Active
same,inhibition,U-87MG ATCC [25],Active
same,Activity,U-87MG ATCC [26],Active
same,Activity,[27],74.6%
same,IC50,SK-OV-3,8.21 µM
same,Activity,U-87MG ATCC [28],Active
same,Activity,[29],72.7%
same,IC50,JIMT-1,4.84 µM
c1ccc(-c2nc(CNc3nccc(NC4CCCCC4)n3)cs2)cc1,IC50 at 72 h,[1],10.8 µM
same,IC50,[2],11.6 µM
same,IC50,MDA-MB-231,18.4 µM
same,IC50,[3],28.2 µM
same,IC50,SK-OV-3,12.5 µM
same,IC50,JIMT-1,19.4 µM
